Laboratory results from ChEMBL document CHEMBL5291721, “A preclinical secondary pharmacology resource illuminates target-adverse drug reaction associations of marketed drugs” (Nat Commun, 2023).

Experiments:
[1] = molecular target: 3',5'-cyclic-AMP phosphodiesterase 4D (Homo sapiens, UniProt Q08499); assay type: functional
Adenosine receptor A3 = molecular target: T1, Adenosine receptor A3 (Homo sapiens, UniProt P0DMS8)
T1 sequence (P0DMS8 whole entry): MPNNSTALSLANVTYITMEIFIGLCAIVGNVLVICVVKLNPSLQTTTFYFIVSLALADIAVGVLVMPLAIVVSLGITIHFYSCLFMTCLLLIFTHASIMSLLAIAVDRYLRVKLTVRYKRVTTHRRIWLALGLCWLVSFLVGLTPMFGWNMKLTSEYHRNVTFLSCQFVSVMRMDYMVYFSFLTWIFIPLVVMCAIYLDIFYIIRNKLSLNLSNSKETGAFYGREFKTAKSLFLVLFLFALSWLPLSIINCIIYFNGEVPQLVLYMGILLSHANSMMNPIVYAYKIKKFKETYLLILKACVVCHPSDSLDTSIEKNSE

Motilin receptor = Motilin receptor (Homo sapiens, UniProt O43193)
[2] = molecular target: T2, Type-1 angiotensin II receptor (Homo sapiens, UniProt P30556)
T2 sequence (P30556 whole entry): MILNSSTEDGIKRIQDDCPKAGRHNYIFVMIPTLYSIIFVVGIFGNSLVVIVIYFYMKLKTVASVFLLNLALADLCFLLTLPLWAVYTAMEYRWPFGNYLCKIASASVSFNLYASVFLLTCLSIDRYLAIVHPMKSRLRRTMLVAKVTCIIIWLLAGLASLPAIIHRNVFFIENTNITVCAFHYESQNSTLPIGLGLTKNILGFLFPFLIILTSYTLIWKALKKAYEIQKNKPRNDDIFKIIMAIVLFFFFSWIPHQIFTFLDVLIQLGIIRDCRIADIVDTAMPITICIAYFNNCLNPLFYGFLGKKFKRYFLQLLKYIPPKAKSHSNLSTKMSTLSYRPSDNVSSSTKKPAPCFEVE

[3] = molecular target: T3, Amine oxidase [flavin-containing] A (Homo sapiens, UniProt P21397); assay type: functional
T3 sequence (P21397 whole entry): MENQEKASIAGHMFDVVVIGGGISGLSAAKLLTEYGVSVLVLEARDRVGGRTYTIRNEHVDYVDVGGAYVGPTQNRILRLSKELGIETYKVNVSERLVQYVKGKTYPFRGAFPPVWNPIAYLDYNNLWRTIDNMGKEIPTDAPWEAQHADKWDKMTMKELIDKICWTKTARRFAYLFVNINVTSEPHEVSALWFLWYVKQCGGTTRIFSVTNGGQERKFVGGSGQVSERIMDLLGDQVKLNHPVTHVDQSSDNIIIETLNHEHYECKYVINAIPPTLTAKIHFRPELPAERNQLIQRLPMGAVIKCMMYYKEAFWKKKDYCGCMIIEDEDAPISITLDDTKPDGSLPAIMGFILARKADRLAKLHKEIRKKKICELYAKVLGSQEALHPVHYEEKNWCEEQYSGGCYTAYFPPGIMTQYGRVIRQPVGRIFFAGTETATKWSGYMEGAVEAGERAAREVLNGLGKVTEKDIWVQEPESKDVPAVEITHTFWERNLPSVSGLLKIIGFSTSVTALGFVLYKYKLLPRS

[4] = molecular target: T4, Alpha-2C adrenergic receptor (Homo sapiens, UniProt P18825); assay type: functional
T4 sequence (P18825 whole entry): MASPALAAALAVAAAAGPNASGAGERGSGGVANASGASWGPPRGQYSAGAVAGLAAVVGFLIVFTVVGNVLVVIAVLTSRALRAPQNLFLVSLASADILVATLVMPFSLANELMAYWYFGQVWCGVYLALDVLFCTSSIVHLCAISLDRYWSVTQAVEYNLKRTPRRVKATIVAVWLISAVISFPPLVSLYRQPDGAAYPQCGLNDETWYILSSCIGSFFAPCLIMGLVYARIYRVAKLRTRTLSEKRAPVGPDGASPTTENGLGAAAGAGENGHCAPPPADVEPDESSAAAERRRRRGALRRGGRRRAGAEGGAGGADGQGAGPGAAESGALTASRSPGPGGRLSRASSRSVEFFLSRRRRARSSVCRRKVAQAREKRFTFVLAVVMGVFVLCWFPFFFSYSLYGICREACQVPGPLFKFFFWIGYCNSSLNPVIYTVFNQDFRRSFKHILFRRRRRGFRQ

[5] = molecular target: Neuronal acetylcholine receptor subunit alpha-4 (Homo sapiens, UniProt P43681)
[6] = molecular target: Sodium-dependent noradrenaline transporter (Homo sapiens, UniProt P23975)
[7] = molecular target: 5-hydroxytryptamine receptor 2B (Homo sapiens, UniProt P41595); assay type: functional, cell-based
Bile salt export pump = Bile salt export pump (Homo sapiens, UniProt O95342); assay type: functional
[8] = molecular target: Delta-type opioid receptor (Homo sapiens, UniProt P41143)
[9] = molecular target: T5, 5-hydroxytryptamine receptor 3A (Homo sapiens, UniProt P46098); assay type: functional
T5 sequence (P46098 whole entry): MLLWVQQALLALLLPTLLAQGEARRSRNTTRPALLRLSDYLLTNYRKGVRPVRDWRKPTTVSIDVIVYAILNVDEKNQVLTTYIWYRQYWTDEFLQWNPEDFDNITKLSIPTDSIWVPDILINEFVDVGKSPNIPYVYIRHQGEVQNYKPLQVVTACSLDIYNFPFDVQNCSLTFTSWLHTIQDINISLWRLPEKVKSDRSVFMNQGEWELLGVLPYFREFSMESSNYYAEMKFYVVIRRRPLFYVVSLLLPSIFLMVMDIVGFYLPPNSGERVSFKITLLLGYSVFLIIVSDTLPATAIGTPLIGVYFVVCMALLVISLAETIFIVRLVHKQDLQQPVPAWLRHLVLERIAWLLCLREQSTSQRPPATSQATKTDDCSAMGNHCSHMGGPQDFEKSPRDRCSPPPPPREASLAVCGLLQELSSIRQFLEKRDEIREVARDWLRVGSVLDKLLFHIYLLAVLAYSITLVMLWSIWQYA

[10] = molecular target: cGMP-inhibited 3',5'-cyclic phosphodiesterase 3A (Homo sapiens, UniProt Q14432); assay type: functional
D(3) dopamine receptor = D(3) dopamine receptor (Homo sapiens, UniProt P35462)
Further: assay procedure not described here.

Sequence of 5-hydroxytryptamine receptor 2B (P41595 whole entry): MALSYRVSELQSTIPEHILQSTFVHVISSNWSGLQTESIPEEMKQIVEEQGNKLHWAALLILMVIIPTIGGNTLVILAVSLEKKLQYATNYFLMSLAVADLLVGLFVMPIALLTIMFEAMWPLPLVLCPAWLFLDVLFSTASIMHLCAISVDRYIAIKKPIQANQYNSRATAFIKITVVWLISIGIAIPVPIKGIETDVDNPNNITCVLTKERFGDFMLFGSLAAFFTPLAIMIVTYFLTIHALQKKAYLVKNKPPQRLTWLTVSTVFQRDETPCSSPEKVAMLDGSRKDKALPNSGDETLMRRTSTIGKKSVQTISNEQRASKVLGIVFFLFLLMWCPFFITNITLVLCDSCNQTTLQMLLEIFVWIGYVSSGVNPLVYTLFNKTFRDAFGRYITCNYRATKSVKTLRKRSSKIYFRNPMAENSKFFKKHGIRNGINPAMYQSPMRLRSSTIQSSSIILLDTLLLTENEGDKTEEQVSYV
Sequence of Neuronal acetylcholine receptor subunit alpha-4 (P43681 whole entry): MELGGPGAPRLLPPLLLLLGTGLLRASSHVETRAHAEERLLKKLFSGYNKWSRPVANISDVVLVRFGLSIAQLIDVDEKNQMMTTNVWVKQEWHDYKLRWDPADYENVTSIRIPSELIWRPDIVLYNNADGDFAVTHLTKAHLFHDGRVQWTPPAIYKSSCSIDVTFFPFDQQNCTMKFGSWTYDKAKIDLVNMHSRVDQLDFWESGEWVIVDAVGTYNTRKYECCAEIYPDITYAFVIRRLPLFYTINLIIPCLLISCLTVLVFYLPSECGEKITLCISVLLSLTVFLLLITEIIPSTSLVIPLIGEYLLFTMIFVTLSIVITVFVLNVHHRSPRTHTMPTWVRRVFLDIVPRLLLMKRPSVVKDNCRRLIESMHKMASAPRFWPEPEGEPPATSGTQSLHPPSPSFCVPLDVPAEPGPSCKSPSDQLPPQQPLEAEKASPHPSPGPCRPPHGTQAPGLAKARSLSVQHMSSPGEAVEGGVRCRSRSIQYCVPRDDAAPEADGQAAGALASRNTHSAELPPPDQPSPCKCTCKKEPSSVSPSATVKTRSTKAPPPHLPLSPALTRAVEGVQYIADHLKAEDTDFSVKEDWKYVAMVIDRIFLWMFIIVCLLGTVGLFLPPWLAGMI
Sequence of Delta-type opioid receptor (P41143 whole entry): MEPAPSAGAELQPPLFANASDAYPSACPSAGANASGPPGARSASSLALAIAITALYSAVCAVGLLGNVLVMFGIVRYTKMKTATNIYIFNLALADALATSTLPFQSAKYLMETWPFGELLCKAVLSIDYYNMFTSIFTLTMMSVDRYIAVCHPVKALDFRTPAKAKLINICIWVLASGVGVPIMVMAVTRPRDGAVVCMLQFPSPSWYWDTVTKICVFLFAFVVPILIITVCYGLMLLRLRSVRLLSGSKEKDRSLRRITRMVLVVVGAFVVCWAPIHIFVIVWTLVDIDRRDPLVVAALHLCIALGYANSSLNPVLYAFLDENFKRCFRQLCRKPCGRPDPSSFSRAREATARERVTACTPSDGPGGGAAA
Sequence of Bile salt export pump (O95342 whole entry): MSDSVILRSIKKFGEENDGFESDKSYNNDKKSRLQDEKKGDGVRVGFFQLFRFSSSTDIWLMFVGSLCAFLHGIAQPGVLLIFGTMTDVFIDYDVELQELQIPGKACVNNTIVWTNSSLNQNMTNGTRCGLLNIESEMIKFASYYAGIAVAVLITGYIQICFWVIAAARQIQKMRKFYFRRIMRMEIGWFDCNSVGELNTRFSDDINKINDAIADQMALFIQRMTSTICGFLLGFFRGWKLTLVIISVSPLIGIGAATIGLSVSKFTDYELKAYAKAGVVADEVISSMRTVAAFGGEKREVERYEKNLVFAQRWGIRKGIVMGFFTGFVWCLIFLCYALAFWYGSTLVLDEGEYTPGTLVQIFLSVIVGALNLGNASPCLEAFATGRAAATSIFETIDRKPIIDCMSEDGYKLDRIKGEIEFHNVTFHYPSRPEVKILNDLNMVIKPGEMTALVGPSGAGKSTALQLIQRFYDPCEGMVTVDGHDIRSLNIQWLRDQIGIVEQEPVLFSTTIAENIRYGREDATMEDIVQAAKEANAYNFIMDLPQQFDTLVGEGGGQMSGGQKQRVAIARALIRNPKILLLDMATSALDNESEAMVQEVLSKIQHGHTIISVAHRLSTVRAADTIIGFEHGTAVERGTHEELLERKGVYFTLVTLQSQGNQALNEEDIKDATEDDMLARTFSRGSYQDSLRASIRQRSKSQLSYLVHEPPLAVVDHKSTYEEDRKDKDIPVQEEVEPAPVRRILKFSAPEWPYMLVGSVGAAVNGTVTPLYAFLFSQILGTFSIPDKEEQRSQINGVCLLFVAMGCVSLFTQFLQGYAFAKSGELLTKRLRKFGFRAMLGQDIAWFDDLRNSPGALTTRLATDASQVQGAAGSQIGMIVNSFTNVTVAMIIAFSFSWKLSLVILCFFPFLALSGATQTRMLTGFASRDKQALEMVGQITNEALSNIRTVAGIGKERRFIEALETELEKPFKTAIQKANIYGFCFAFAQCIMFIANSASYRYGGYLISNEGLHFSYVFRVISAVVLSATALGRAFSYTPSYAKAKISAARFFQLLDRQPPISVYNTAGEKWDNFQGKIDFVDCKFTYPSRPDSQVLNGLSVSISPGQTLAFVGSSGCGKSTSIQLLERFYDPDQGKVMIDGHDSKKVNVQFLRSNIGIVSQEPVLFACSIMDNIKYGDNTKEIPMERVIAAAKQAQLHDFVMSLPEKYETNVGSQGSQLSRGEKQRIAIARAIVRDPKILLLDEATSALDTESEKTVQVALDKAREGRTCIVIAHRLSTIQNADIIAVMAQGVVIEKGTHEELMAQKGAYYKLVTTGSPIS
Sequence of 3',5'-cyclic-AMP phosphodiesterase 4D (Q08499 whole entry): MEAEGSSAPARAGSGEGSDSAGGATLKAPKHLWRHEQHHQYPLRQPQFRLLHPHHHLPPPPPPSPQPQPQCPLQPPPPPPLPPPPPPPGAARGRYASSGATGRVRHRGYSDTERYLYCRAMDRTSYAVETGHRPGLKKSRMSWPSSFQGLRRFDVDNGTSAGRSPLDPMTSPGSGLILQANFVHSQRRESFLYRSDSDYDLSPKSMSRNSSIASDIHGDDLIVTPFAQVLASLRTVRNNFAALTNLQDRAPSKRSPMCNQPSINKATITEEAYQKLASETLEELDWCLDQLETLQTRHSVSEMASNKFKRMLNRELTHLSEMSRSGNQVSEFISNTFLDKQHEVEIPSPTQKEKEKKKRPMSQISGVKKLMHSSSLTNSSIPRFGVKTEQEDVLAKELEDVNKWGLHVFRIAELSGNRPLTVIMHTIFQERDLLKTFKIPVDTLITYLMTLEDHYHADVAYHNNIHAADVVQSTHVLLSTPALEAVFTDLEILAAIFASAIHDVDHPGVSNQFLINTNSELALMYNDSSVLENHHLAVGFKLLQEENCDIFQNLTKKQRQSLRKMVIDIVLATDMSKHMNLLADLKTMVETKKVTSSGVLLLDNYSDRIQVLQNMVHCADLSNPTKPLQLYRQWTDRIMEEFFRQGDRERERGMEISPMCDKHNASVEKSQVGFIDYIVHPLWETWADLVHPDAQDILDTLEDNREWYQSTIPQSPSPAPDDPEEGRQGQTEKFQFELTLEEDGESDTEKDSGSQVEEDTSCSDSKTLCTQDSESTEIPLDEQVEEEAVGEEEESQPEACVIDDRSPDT
Sequence of cGMP-inhibited 3',5'-cyclic phosphodiesterase 3A (Q14432 whole entry): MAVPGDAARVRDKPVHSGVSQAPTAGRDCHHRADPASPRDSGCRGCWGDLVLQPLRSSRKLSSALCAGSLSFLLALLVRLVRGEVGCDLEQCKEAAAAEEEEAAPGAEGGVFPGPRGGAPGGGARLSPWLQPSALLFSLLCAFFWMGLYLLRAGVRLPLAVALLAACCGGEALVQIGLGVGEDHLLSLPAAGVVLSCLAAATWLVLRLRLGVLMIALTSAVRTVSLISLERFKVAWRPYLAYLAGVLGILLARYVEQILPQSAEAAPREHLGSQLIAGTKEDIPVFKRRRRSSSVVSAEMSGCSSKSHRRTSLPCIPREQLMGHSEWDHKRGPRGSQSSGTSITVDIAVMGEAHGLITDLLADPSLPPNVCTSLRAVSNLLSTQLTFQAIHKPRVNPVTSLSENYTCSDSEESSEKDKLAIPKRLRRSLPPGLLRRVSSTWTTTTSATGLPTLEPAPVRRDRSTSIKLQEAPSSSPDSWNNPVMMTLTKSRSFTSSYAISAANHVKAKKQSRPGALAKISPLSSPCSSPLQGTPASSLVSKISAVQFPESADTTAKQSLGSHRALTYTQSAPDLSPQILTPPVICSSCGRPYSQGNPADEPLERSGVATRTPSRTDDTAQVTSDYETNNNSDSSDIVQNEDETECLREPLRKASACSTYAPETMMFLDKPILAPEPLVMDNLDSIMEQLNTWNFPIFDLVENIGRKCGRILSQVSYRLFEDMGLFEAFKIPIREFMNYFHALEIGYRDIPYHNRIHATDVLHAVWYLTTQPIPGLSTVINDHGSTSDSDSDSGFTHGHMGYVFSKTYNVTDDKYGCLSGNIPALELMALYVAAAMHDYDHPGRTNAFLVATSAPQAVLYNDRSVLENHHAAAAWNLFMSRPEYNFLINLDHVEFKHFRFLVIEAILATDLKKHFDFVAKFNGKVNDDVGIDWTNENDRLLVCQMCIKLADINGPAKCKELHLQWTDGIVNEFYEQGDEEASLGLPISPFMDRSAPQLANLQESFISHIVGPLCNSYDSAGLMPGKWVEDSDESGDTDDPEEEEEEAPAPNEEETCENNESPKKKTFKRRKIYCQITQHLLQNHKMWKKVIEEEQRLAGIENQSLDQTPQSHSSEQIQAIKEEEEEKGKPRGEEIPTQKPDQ

| SMILES | AC50 [1] [µM] | AC50 (Adenosine receptor A3) [µM] | AC50 (Motilin receptor) [µM] | AC50 [2] [µM] | AC50 [3] [µM] | AC50 [4] [µM] | AC50 [5] [µM] | AC50 [6] [µM] | AC50 [7] [µM] | AC50 (Bile salt export pump) [µM] | AC50 [8] [µM] | AC50 [9] [µM] | AC50 [10] [µM] | AC50 (D(3) dopamine receptor) [µM] |
| --- | --- | --- | --- | --- | --- | --- | --- | --- | --- | --- | --- | --- | --- | --- |
| N[C@@H](Cc1cc(I)c(Oc2cc(I)c(O)c(I)c2)c(I)c1)C(=O)O [LEVOTHYROXINE] | 1.8 | 11 | > 30 | > 30 | > 30 | > 30 | > 30 | > 30 | > 30 | > 300 | > 30 | > 30 | > 30 | > 30 |
| CN(C)CCOC(c1ccc(Cl)cc1)c1ccccn1 (stereo unspecified) [CARBINOXAMINE] | > 30 | > 30 | > 30 | > 30 | > 30 | > 30 | > 30 | 24 | > 30 | > 300 | > 30 | > 30 | > 30 | > 30 |
| CC(=O)Oc1ccccc1C(=O)O [ASPIRIN] | > 30 | > 30 | > 10 | > 30 | > 30 | > 10 | > 10 | > 30 | > 10 | > 300 | > 30 | > 30 | > 30 | > 30 |
| C[C@H](Cn1cnc2c(N)ncnc21)OCP(=O)(O)O [TENOFOVIR ANHYDROUS] | > 30 | > 30 | > 30 | > 30 | > 30 | > 30 | > 30 | > 30 | > 30 | > 300 | > 10 | > 30 | > 30 | > 30 |
| C=CC1=C(C(=O)O)N2C(=O)[C@@H](NC(=O)/C(=N\O)c3csc(N)n3)[C@H]2SC1 | > 30 | > 30 | > 10 | > 30 | > 10 | > 10 | > 10 | > 30 | > 10 | > 300 | > 30 | > 30 | > 30 | > 30 |
| CCOC(=O)Nc1ccc(NCc2ccc(F)cc2)nc1N [FLUPIRTINE] | > 30 | 21 | > 30 | > 30 | > 30 | > 30 | > 30 | > 30 | > 30 | 85 | > 30 | > 30 | > 30 | > 30 |
| C[C@H](Nc1ncnc2[nH]cnc12)c1cc2cccc(Cl)c2c(=O)n1-c1ccccc1 [DUVELISIB] | > 30 | > 30 | > 30 | > 30 | > 30 | > 30 | > 30 | > 30 | > 30 | 45 | > 30 | > 30 | > 30 | > 30 |
| C[C@H](CS)C(=O)N1CCC[C@H]1C(=O)O [CAPTOPRIL] | > 30 | > 30 | > 10 | > 30 | > 10 | > 10 | > 10 | > 30 | > 10 | > 300 | > 30 | > 30 | > 30 | > 30 |
| CNC1(C)C2CCC(C2)C1(C)C (stereo unspecified) [MECAMYLAMINE] | > 30 | > 10 | > 10 | > 10 | > 10 | > 10 | > 10 | > 10 | > 10 | > 300 | > 30 | > 30 | > 30 | > 30 |
| O=C(O)COC(=O)Cc1ccccc1Nc1c(Cl)cccc1Cl [ACECLOFENAC] | > 30 | > 30 | > 10 | > 30 | > 10 | > 10 | > 10 | > 30 | > 10 | 130 | > 30 | > 30 | > 30 | > 30 |
| Nc1c2c(nc3ccccc13)CCCC2O (stereo unspecified) [VELNACRINE] | > 30 | > 30 | > 30 | > 30 | > 30 | > 30 | > 30 | > 30 | > 30 | > 300 | > 30 | > 30 | > 30 | > 30 |
| CCOc1ccccc1OCCN[C@H](C)Cc1ccc(OC)c(S(N)(=O)=O)c1 [TAMSULOSIN] | > 30 | > 30 | > 10 | > 30 | > 10 | 0.3 | > 10 | > 30 | > 10 | > 300 | > 30 | > 30 | > 30 | 0.0032 |
| COC(=O)CCc1ccc(OCC(O)CNC(C)C)cc1 (stereo unspecified) [ESMOLOL] | > 30 | > 30 | > 30 | > 30 | > 30 | > 30 | > 30 | > 30 | > 30 | > 300 | > 30 | > 30 | > 30 | > 30 |
| CCC[C@@]1(CCc2ccccc2)CC(O)=C([C@H](CC)c2cccc(NS(=O)(=O)c3ccc(C(F)(F)F)cn3)c2)C(=O)O1 | 29 | 6.4 | 27 | 11 | > 30 | 25 | > 30 | > 30 | > 30 | 3.2 | 16 | > 30 | > 30 | > 30 |
